Assay results published in US10961236B2, “(S)-2-(1-cyclopropylethyl)-5-(4-methyl-2-((6-(2-oxopyrrolidin-1-yl)pyridin-2-yl)amino) thiazol-5-yl)-7-(methylsulfonyl)isoindolin-1-one as a phosphatidylinositol 3-kinase inhibitor” (AstraZeneca AB, priority 2016, dated 2021).

Tests used:
Type in all cases: biochemical
[1] = biological target: recombinant human PI3Kδ (6-His(p110-p85α)) (Homo sapiens (Human), UniProt O00329); assay: Enzymatic activity assay for recombinant human PI3Kδ (ADP-Glo); settings: 0.6 nM PI3Kδ, 20 μM ATP, 80 μM DiC8-PIP2, ADP-Glo
Procedure, shortened: (§1)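 ADP-Glo luminescence after DiC8-PIP2 (80 μM) phosphorylation with 20 μM ATP in 50 mM Tris pH 7.4, 3 mM MgCl2, 2.1 mM DTT, 0.05% CHAPS at room temperature. Enzyme 1.2 nM PI3Kγ or 0.6 nM PI3Kδ; inhibitors pre-incubated 15 min, then 60 min reaction.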

[2] = biological target: recombinant human PI3Kβ (6-His(p110-p85α)) (Homo sapiens (Human), UniProt P42338); assay: Enzymatic activity assay for recombinant human PI3Kβ (ADP-Glo); settings: 1.2 nM PI3Kβ, 20 μM ATP, 80 μM DiC8-PIP2, ADP-Glo
Procedure, shortened: (§2)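 ADP-Glo luminescence after DiC8-PIP2 phosphorylation at RT: 80 μM lipid substrate, 20 μM ATP, 1.2 nM enzyme (0.6 nM for δ) in Tris pH 7.4 with MgCl2, DTT, CHAPS. Compounds pre-incubated 15 min with enzyme, then 60 min reaction; DMSO ≤1%.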

[3] = biological target: recombinant human PI3Kα (6-His(p110-p85α)) (Homo sapiens (Human), UniProt P42336); assay: Enzymatic activity assay for recombinant human PI3Kα (ADP-Glo); settings: 1.2 nM PI3Kα, 20 μM ATP, 80 μM DiC8-PIP2, ADP-Glo
Procedure, shortened: as §2

[4] = biological target: recombinant human PI3Kγ ((aa144-1102)-6His) (Homo sapiens (Human), UniProt P48736); assay: Enzymatic activity assay for recombinant human PI3Kγ (ADP-Glo); settings: 1.2 nM PI3Kγ, 20 μM ATP, 80 μM DiC8-PIP2, ADP-Glo
Procedure, shortened: as §1

Chain of recombinant human PI3Kγ ((aa144-1102)-6His) (P48736 144-1102): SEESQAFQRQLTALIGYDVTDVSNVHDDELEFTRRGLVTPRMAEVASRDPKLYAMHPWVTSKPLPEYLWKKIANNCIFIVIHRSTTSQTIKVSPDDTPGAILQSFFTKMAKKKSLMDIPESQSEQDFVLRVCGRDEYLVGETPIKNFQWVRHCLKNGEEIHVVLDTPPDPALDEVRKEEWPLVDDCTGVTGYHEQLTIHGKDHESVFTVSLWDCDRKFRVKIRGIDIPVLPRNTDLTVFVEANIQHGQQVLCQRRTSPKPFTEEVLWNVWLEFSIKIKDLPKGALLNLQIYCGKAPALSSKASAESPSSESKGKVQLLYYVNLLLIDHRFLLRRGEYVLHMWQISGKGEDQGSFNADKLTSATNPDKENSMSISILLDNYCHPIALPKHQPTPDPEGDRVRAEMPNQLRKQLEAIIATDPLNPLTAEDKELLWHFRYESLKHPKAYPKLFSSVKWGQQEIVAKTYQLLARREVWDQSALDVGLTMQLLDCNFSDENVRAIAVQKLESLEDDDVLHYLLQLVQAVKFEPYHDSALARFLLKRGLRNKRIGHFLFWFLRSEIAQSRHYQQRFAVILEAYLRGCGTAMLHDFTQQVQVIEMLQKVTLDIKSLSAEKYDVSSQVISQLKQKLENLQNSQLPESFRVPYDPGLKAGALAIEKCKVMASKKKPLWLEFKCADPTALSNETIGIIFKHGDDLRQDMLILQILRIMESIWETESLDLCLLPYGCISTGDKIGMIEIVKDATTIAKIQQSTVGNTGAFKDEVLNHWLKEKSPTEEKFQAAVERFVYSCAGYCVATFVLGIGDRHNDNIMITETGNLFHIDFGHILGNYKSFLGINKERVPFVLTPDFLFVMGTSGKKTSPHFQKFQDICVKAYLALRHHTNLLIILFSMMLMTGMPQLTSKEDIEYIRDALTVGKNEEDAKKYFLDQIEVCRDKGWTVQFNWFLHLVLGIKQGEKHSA
Chain of recombinant human PI3Kβ (6-His(p110-p85α)) (P42338 whole entry): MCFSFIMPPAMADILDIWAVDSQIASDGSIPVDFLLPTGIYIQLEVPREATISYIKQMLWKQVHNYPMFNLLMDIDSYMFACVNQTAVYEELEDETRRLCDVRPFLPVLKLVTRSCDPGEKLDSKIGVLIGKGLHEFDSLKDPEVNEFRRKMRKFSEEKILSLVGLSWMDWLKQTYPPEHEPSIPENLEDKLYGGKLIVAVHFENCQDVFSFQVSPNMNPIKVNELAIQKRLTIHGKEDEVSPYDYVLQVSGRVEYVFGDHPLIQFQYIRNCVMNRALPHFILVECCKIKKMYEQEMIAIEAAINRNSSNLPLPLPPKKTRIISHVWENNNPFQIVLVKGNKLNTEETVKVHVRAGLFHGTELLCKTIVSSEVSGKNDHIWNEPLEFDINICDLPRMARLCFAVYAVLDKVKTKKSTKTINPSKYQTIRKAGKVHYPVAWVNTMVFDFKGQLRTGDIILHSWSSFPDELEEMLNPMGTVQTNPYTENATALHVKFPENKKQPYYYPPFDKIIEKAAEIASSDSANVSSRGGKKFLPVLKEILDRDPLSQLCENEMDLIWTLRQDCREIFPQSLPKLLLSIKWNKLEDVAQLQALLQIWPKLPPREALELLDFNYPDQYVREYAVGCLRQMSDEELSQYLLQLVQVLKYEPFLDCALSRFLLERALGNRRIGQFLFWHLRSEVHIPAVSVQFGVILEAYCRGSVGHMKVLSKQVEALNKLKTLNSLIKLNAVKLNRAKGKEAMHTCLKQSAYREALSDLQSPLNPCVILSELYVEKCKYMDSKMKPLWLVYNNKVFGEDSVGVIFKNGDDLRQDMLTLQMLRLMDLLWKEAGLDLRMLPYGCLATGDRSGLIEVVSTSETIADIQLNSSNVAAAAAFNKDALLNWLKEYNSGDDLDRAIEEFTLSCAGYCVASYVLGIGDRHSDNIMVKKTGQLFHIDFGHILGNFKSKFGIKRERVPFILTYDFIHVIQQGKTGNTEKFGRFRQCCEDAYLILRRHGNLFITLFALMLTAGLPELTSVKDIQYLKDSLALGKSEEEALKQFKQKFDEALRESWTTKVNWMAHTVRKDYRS
Chain of recombinant human PI3Kβ (6-His(p110-p85α)) (P27986 whole entry partner): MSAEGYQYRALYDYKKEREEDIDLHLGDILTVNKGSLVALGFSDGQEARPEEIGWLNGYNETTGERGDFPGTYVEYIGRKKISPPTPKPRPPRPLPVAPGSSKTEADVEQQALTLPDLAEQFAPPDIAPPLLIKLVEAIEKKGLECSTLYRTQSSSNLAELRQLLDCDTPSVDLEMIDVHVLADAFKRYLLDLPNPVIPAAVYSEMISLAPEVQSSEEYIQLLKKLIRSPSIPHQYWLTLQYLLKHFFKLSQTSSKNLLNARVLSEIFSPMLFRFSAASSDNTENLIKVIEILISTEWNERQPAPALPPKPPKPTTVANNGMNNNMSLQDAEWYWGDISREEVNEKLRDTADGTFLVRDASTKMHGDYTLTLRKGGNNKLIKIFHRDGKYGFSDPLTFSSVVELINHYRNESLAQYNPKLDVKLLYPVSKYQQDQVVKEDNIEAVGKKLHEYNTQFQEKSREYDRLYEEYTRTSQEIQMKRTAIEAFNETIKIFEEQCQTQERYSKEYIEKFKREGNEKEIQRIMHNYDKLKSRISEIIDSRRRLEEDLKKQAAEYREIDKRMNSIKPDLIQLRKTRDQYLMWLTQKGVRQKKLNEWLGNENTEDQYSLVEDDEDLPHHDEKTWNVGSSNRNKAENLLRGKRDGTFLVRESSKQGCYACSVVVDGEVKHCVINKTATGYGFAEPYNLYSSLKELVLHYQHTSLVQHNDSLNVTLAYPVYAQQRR
Chain of recombinant human PI3Kα (6-His(p110-p85α)) (P42336 whole entry): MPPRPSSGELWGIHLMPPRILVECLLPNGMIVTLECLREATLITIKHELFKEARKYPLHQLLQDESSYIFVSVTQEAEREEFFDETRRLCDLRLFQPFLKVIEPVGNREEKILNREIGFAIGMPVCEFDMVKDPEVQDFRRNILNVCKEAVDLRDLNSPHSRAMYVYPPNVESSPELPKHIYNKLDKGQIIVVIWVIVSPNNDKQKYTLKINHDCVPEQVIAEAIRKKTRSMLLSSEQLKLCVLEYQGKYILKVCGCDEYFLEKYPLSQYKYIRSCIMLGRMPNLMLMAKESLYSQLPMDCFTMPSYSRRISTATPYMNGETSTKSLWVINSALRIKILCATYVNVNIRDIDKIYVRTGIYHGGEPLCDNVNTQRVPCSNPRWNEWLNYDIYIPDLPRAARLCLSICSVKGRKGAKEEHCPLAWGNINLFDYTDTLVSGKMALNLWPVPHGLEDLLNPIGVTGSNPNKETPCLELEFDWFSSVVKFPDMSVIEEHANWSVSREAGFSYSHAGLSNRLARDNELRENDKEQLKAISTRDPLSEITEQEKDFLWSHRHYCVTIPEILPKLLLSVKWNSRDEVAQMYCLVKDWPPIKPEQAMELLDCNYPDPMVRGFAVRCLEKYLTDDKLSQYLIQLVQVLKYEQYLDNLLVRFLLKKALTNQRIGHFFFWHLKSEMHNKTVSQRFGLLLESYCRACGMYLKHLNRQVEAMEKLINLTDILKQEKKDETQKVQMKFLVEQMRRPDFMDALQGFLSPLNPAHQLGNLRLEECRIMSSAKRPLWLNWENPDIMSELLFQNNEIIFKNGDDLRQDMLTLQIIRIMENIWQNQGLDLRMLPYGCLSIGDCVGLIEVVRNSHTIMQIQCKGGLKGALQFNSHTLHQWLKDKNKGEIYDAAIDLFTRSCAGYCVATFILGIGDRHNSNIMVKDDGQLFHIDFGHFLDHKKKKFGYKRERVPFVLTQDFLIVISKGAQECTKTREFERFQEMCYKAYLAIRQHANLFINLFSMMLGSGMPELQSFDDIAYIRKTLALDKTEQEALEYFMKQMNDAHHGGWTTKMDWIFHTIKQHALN
Chain of recombinant human PI3Kα (6-His(p110-p85α)) (P27986 whole entry partner): as the sequence (P27986 whole entry partner) above
Chain of recombinant human PI3Kδ (6-His(p110-p85α)) (O00329 whole entry): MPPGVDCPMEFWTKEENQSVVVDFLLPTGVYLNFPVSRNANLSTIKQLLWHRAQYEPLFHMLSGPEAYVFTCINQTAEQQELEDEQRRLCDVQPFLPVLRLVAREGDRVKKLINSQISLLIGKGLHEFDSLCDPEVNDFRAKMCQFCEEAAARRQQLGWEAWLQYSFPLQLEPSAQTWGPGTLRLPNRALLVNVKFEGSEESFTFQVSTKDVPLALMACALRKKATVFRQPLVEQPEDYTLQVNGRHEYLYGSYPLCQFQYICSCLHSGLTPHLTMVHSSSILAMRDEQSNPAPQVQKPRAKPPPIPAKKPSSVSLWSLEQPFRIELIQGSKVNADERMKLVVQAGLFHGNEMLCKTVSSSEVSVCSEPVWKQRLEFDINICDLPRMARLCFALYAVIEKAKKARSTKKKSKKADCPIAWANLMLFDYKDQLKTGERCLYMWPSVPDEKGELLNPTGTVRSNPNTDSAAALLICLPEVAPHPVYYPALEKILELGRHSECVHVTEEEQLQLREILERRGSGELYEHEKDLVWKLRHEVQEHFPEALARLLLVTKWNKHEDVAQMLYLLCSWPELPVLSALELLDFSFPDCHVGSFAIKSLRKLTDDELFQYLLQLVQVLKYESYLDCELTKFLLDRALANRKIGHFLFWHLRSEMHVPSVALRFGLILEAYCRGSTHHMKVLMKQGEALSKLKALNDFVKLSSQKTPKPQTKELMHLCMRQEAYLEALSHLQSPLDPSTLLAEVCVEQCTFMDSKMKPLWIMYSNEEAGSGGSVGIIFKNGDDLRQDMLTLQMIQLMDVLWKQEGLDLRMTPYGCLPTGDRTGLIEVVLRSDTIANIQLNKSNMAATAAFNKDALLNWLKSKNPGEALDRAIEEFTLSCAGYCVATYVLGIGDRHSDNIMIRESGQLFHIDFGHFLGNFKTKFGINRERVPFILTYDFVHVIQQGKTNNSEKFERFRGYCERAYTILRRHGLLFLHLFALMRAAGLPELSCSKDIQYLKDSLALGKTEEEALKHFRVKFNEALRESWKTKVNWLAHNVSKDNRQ
Chain of recombinant human PI3Kδ (6-His(p110-p85α)) (P27986 whole entry partner): as the sequence (P27986 whole entry partner) above

| IC50 [1] [nM] | IC50 [2] [nM] | IC50 [3] [nM] | IC50 [4] [nM] | SMILES |
| --- | --- | --- | --- | --- |
| 1.1 | 386 | 40 | 0.9 | CNS(=O)(=O)c1cc(-c2sc(Nc3cccc(N4C[C@H](O)CC4=O)n3)nc2C)cc2c1C(=O)N([C@@H](C)C1CC1)C2 [Example 55, 2-[(1S)-1-Cyclopropylethyl]-6-[2-({6-[(4R)-4-hydroxy-2-oxopyrrolidin-1-yl]pyridin-2-yl}amino)-4-methyl-1,3-thiazol-5-yl]-N-methyl-3-oxo-2,3-dihydro-1H-isoindole-4-sulfonamide] |
| 0.5 | 249 | 26 | 1 | CNS(=O)(=O)c1cc(-c2sc(Nc3cccc(N4CC[C@H](O)C4=O)n3)nc2C)cc2c1C(=O)N([C@@H](C)C1CC1)C2 [Example 56, 2-[(1S)-1-Cyclopropylethyl]-6-[2-({6-[(3S)-3-hydroxy-2-oxopyrrolidin-1-yl]pyridin-2-yl}amino)-4-methyl-1,3-thiazol-5-yl]-N-methyl-3-oxo-2,3-dihydro-1H-isoindole-4-sulfonamide] |
| 0.7 | 85 | 11 | 1.2 | CNS(=O)(=O)c1cc(-c2sc(Nc3cccc(N4C(=O)CC[C@H]4CO)n3)nc2C)cc2c1C(=O)N([C@@H](C)C1CC1)C2 [Example 57, 2-[(1S)-1-Cyclopropylethyl]-6-[2-({6-[(2S)-2-(hydroxymethyl)-5-oxopyrrolidin-1-yl]pyridin-2-yl}amino)-4-methyl-1,3-thiazol-5-yl]-N-methyl-3-oxo-2,3-dihydro-1H-isoindole-4-sulfonamide] |
| 2.9 | 998 | 43 | 1.2 | CNS(=O)(=O)c1cc(-c2sc(Nc3cccc(N4C(=O)CC[C@@H]4CO)n3)nc2C)cc2c1C(=O)N([C@@H](C)C1CC1)C2 [Example 58, 2-[(1S)-1-Cyclopropylethyl]-6-[2-({6-[(2R)-2-(hydroxymethyl)-5-oxopyrrolidin-1-yl]pyridin-2-yl}amino)-4-methyl-1,3-thiazol-5-yl]-N-methyl-3-oxo-2,3-dihydro-1H-isoindole-4-sulfonamide] |
| 0.7 | 481 | 27 | 0.9 | CNS(=O)(=O)c1cc(-c2sc(Nc3cccc(N4CCN(CCO)CC4=O)n3)nc2C)cc2c1C(=O)N([C@@H](C)C1CC1)C2 [Example 59, 2-[(1S)-1-Cyclopropylethyl]-6-[2-({6-[4-(2-hydroxyethyl)-2-oxopiperazin-1-yl]pyridin-2-yl}amino)-4-methyl-1,3-thiazol-5-yl]-N-methyl-3-oxo-2,3-dihydro-1H-isoindole-4-sulfonamide] |
| 0.5 | 322 | 57 | 1.2 | Cc1nc(Nc2cccc(N3CC[C@H](O)C3=O)n2)sc1-c1cc2c(c(S(=O)(=O)NC(C)C)c1)C(=O)N([C@@H](C)C(F)(F)F)C2 [Example 60, 6-[2-({6-[(3S)-3-Hydroxy-2-oxopyrrolidin-1-yl]pyridin-2-yl}amino)-4-methyl-1,3-thiazol-5-yl]-3-oxo-N-(propan-2-yl)-2-[(2S)-1,1,1-trifluoropropan-2-yl]-2,3-dihydro-1H-isoindole-4-sulfonamide] |
| 2.1 | 1150 | 162 | 0.8 | CC[C@H](C)N1Cc2cc(-c3sc(Nc4cccc(N5CCOCC5=O)n4)nc3C)cc(S(=O)(=O)NC)c2C1=O [Example 62, 2-[(2S)-Butan-2-yl]-N-methyl-6-(4-methyl-2-{[6-(3-oxomorpholin-4-yl)pyridin-2-yl]amino}-1,3-thiazol-5-yl)-3-oxo-2,3-dihydro-1H-isoindole-4-sulfonamide] |
| 0.7 | 274 | 32 | 1.2 | CNS(=O)(=O)c1cc(-c2sc(Nc3cccc(N4CCNC4=O)n3)nc2C)cc2c1C(=O)N([C@@H](C)C(F)(F)F)C2 [Example 63, N-Methyl-6-(4-methyl-2-{[6-(2-oxoimidazolidin-1-yl)pyridin-2-yl]amino}-1,3-thiazol-5-yl)-3-oxo-2-[(2S)-1,1,1-trifluoropropan-2-yl]-2,3-dihydro-1H-isoindole-4-sulfonamide] |
